Assay results taken from the supplement of paper PMC12613149.

Columns and labels:
[1] = collision cross section (TIMS, N2 drift gas) of the primary ion; higher = larger gas-phase ion size
[2] = reversed-phase LC retention time (C18, 15 min MeOH gradient); higher = more hydrophobic / later elution
[3] = ionization mode: ESI+, ion species: [M]+
[4] = ionization mode: ESI+, ion species: [M+H]+
[5] = ionization mode: ESI-, ion species: [M-H]-

collision cross section [1, 4] | reversed-phase LC retention time [2, 4] | collision cross section [1, 5] | reversed-phase LC retention time [2, 5] | Compound | collision cross section [1, 3] | reversed-phase LC retention time [2, 3]
 |  |  |  | C[N+](C)(C)Cc1ccccc1 [Benzyltrimethylammonium] | 129.9 Å² | 5.04 min
 |  | 124.62 Å² | 14.3 min | Oc1cccc2ccccc12 [1-Naphthol] |  | 
176.35 Å² | 12.7 min | 173.06 Å² | 17.1 min | CN(C)Cc1cc(C(C)(C)C)c(O)c(C(C)(C)C)c1 [2,6-Di-tert-Butyl-4-(dimethylamino)methylphenol] |  | 
 |  |  |  | CCN(CCO)c1ccc(N=Nc2sc3cc(OC)ccc3[n+]2C)cc1 [Basic Blue 41] | 195.62 Å² | 12.1 min
166.24 Å² | 7.62 min |  |  | CC(C)NCC(O)COc1ccc(CC(=O)O)cc1 (stereo not given) [Metoprolol acid] |  | 
166.78 Å² | 8.96 min | 172.85 Å² | 11.3 min | CN(C)CC(c1ccc(O)cc1)C1(O)CCCCC1 (stereo not given) [Venlafaxine-O-desmethyl] |  | 
132.84 Å² | 11.7 min | 135.07 Å² | 11.9 min | CC(=O)CCc1ccc(O)cc1 [4-(4-Hydroxyphenyl)butan-2-one] |  | 
123.85 Å² | 9.87 min |  |  | Cc1ccc2[nH]nnc2c1 [5-Methyl-1H-benzotriazole] |  | 
 |  | 203.46 Å² | 12.1 min | CCC(C)C(=O)OC1CC(O)C=C2C=CC(C)C(CCC(O)CC(O)CC(=O)O)C21 (stereo not given) [Pravastatin] |  | 
198.92 Å² | 8.42 min |  |  | CN(C)[C@@H]1C(O)=C(C(N)=O)C(=O)[C@@]2(O)C(O)=C3C(=O)c4c(O)cccc4[C@@](C)(O)[C@H]3[C@H](O)[C@@H]12 [Oxytetracycline] |  | 
208.22 Å² | 12.2 min |  |  | COc1ccc(CCN(C)CCCC(C#N)(c2ccc(OC)c(OC)c2)C(C)C)cc1OC (stereo not given) [Verapamil] |  | 
166.92 Å² | 9.38 min | 158.78 Å² | 9.54 min | OC(Cn1cncn1)(Cn1cncn1)c1ccc(F)cc1F [Fluconazole] |  | 
177.46 Å² | 10.8 min | 188.8 Å² | 14.3 min | CC(Cc1ccc(C(C)(C)C(=O)O)cc1)CN1CC(C)OC(C)C1 (stereo not given) [Fenpropimorph acid] |  | 
223.46 Å² | 19.8 min | 188.09 Å² | 17.1 min | CCCCC(CC)COP(=O)(O)OCC(CC)CCCC (stereo not given) [Bis(2-ethylhexyl)phosphate] |  | 
169.04 Å² | 13.4 min | 175.76 Å² | 11.3 min | COc1c(C)c2c(c(O)c1C/C=C(\C)CCC(=O)O)C(=O)OC2 [Mycophenolic acid] |  | 
183.52 Å² | 14.5 min |  |  | CC12CCC(=O)C=C1CCC1C2CCC2(C)C(C(=O)CO)CCC12 (stereo not given) [21-Hydroxyprogesterone] |  | 
135.18 Å² | 10.6 min |  |  | COCCOCCOCCO [2-(2-(2-Methoxyethoxy)ethoxy)ethanol] |  | 
119.54 Å² | 4.16 min |  |  | c1ccc2[nH]cnc2c1 [Benzimidazole] |  | 
 |  | 164.44 Å² | 5.86 min | O=C1c2c(O)cc(O)cc2O[C@H](c2ccc(O)c(O)c2)[C@H]1O [Taxifolin] |  | 
 |  | 147.76 Å² | 14.2 min | CCCCOC(=O)c1ccc(O)cc1 [Butyl 4-hydroxybenzoate] |  | 
216.23 Å² | 11.3 min | 213.83 Å² | 15.4 min | O=C(c1ccc(OCCN2CCCCC2)cc1)c1c(-c2ccc(O)cc2)sc2cc(O)ccc12 [Raloxifene] |  | 
135.99 Å² | 6.64 min |  |  | Cn1c(=O)c2[nH]cnc2n(C)c1=O [Theophyllin] |  | 
185.35 Å² | 16.2 min | 191.1 Å² | 16.6 min | CC(C)C1C2CCC1c1c(NC(=O)c3cn(C)nc3C(F)F)cccc12 (stereo not given) [Isopyrazam] |  | 
 |  | 151.91 Å² | 12.4 min | CCNc1nc(=O)nc(NC(C)(C)C)[nH]1 [Terbuthylazine-2-hydroxy] |  | 
151.03 Å² | 10.8 min | 157.09 Å² | 8.24 min | CCN(CC)C(=O)c1cccc(C(=O)O)c1 [DEET carboxylic acid] |  | 
 |  | 133.39 Å² | 11.3 min | CCOC(=O)c1ccc(O)cc1 [Ethylparaben] |  | 
217.58 Å² | 15.6 min |  |  | CC(=O)OCC(=O)[C@@]12OC3(CCCC3)O[C@@H]1C[C@H]1[C@@H]3CCC4=CC(=O)C=C[C@]4(C)[C@@]3(F)[C@@H](O)C[C@@]12C [Amcinonide] |  | 

Compound | collision cross section [1, 4] | reversed-phase LC retention time [2, 4] | collision cross section [1, 5] | reversed-phase LC retention time [2, 5] | collision cross section [1, 3] | reversed-phase LC retention time [2, 3]
CC1(C)CCC(Cc2ccc(Cl)cc2)C1(O)Cn1cncn1 (stereo not given) [Metconazole] | 170.17 Å² | 15.8 min |  |  |  | 
CNC(=O)Oc1cc(C)c(S(C)(=O)=O)c(C)c1 [Methiocarb sulfone] | 162.89 Å² | 9.59 min |  |  |  | 
O=P(OCCCl)(OCCCl)OCCCl [Tris(2-chloroethyl)phosphate] | 150.93 Å² | 11.7 min |  |  |  | 
O=[PH]1Oc2ccccc2-c2ccccc21 (stereo not given) [3,4,5,6-Dibenzo-1,2-oxaphosphane-2-oxide] |  |  | 144.27 Å² | 8.76 min |  | 
CCOC(=O)c1cn2nc(OP(=S)(OCC)OCC)cc2nc1C [Pyrazophos] | 187.33 Å² | 15.8 min |  |  |  | 
CCCCOP(=O)(O)OCCCC [Di-n-butyl phosphate] |  |  | 151.01 Å² | 11.6 min |  | 
O=P1(NCCCl)OCCCN1CCCl (stereo not given) [Ifosfamide] | 148.36 Å² | 10.2 min |  |  |  | 
CCCN(CCOc1c(Cl)cc(Cl)cc1Cl)C(=O)n1ccnc1 [Prochloraz] | 183.61 Å² | 15.7 min |  |  |  | 
CC1COC(Cn2cncn2)(c2ccc(Oc3ccc(Cl)cc3)cc2Cl)O1 (stereo not given) [Difenoconazole] | 202.11 Å² | 16.1 min |  |  |  | 
Nc1ccc(Cc2ccc(N)cc2)cc1 [4,4'-Methylenedianiline] | 162.72 Å² | 5.68 min |  |  |  | 
CC(C)Oc1cc(-n2nc(C(C)(C)C)oc2=O)c(Cl)cc1Cl [Oxadiazone] | 182.66 Å² | 16.9 min |  |  |  | 
CNC(=O)CSP(=S)(OC)OC [Dimethoate] | 141.81 Å² | 9.08 min |  |  |  | 
CCCCOCCOP(=O)(OCCOCCCC)OCCOCCCC [Tri(butoxyethyl)phosphate] | 198.12 Å² | 16.7 min |  |  |  | 
O=P(OCC(Br)CBr)(OCC(Br)CBr)OCC(Br)CBr (stereo not given) [Tris(2,3-dibromopropyl)phosphate] | 195.61 Å² | 16 min |  |  |  | 
CC(C)(C)C(O)(CCc1ccc(Cl)cc1)Cn1cncn1 (stereo not given) [Tebuconazole] | 168.02 Å² | 15.5 min |  |  |  | 
O=C(O)C(F)(F)C(F)(F)C(F)(F)C(F)(F)C(F)(F)C(F)(F)C(F)(F)C(F)(F)C(F)(F)C(F)(F)F [Perfluoroundecanoic acid] |  |  | 182.71 Å² | 16.5 min |  | 
CN1C(=O)C(O)N=C(c2ccccc2)c2cc(Cl)ccc21 (stereo not given) [Temazepam] | 167.53 Å² | 13.4 min |  |  |  | 
CC(C)(c1ccc(OCC(O)CCl)cc1)c1ccc(OCC(O)CCl)cc1 (stereo not given) [Bisphenol A bis(3-chloro-2-hydroxypropyl) ether] | 194.74 Å² | 14.2 min |  |  |  | 
